Measured values: patent US20240270762A1, “PENICILLIN-BINDING PROTEIN INHIBITORS” (priority 2021, published 2024)
Converted amounts (≈) assume the structure as drawn.

What was measured:
[1] = test system: N. gonorrhoeae WHO K; experiment: Liquid broth MIC in Fastidious broth; conditions: Neisseria gonorrhoeae, read-out: Minimum Inhibitory Concentration, WHO K
[2] = test system: A. baumannii ATCC 17978; experiment: microbe, parasite or virus in culture; type: cell-based; conditions: Acinetobacter baumannii, ATCC17978, read-out: MIC, A. baumannii ATCC 17978
[3] = test system: P. aeruginosa CDC-0110; experiment: microbe, parasite or virus in culture; type: cell-based; conditions: Pseudomonas aeruginosa, CDC0110, read-out: Minimum inhibitory concentration, P. aeruginosa CDC-0110
[4] = test system: A. baumannii CDC-0036; experiment: microbe, parasite or virus in culture; type: cell-based; conditions: Acinetobacter baumannii, CDC0036, read-out: MIC, A. baumannii CDC-0036
[5] = test system: N. gonorrhoeae FA1090; experiment: Liquid broth MIC in Fastidious broth; conditions: Neisseria gonorrhoeae, FA1090, read-out: Minimum Inhibitory Concentration, FA 1090
[6] = test system: P. aeruginosa CDC-0054; experiment: microbe, parasite or virus in culture; type: cell-based; conditions: Pseudomonas aeruginosa, CDC0054, read-out: Minimum inhibitory concentration, P. aeruginosa CDC-0054
[7] = test system: A. baumannii CDC-0033; experiment: microbe, parasite or virus in culture; type: cell-based; conditions: Acinetobacter baumannii, CDC0033, read-out: MIC, A. baumannii CDC-0033
[8] = test system: P. aeruginosa CDC-0095; experiment: microbe, parasite or virus in culture; type: cell-based; conditions: Pseudomonas aeruginosa, CDC0095, read-out: Minimum inhibitory concentration, P. aeruginosa CDC-0095
[9] = target: T1, PBP3 from Escherichia coli (K-12) (Escherichia coli, UniProt P0AD68); experiment: Bocillin-FL fluorescence polarization competition binding, E. coli PBP3
T1 construct: made in house
T1 sequence (P0AD68 1-577): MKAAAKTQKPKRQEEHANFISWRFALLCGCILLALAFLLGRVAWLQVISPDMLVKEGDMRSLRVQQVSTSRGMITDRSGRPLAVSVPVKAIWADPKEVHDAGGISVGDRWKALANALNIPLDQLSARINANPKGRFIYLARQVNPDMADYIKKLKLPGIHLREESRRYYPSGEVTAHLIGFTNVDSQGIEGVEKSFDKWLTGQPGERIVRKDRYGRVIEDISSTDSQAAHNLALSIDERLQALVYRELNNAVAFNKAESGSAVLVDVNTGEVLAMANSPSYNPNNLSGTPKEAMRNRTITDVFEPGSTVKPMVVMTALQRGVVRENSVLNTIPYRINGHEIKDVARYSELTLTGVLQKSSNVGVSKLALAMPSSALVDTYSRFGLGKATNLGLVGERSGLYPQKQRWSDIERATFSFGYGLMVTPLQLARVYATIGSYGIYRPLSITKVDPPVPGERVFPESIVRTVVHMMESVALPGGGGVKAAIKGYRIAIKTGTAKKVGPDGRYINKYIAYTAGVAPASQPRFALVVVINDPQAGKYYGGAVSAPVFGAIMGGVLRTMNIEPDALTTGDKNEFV
In short: (§1)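 Purified PBPs pre-incubated with inhibitor (E. coli PBP3 1.5 μM, 30 min; P. aeruginosa PBP3 0.75 μM, A. baumannii PBP1a 1 μM and PBP3 0.2 μM, 15 min), then Bocillin-FL 0.1 μM (0.05 μM for PBP1a) added; FP read up to 60 min. EC50 = concentration halving bound Bocillin-FL.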

[10] = test system: P. aeruginosa ATCC 27853; experiment: microbe, parasite or virus in culture; type: cell-based; conditions: Pseudomonas aeruginosa, ATCC27853, read-out: Minimum inhibitory concentration, P. aeruginosa ATCC 27853
[11] = target: T2, PBP3 from Pseudomonas aeruginosa (PAO1) (Pseudomonas aeruginosa, UniProt G3XD46); experiment: Bocillin-FL fluorescence polarization competition binding, P. aeruginosa PBP3; conditions: Binding affinity to P. aeruginosa PBP3; fluorescence polarization competition binding assay using Bocillin-FL; read-out: P. aeruginosa PBP3 Potency
T2 construct: made in house
T2 sequence (G3XD46 whole entry): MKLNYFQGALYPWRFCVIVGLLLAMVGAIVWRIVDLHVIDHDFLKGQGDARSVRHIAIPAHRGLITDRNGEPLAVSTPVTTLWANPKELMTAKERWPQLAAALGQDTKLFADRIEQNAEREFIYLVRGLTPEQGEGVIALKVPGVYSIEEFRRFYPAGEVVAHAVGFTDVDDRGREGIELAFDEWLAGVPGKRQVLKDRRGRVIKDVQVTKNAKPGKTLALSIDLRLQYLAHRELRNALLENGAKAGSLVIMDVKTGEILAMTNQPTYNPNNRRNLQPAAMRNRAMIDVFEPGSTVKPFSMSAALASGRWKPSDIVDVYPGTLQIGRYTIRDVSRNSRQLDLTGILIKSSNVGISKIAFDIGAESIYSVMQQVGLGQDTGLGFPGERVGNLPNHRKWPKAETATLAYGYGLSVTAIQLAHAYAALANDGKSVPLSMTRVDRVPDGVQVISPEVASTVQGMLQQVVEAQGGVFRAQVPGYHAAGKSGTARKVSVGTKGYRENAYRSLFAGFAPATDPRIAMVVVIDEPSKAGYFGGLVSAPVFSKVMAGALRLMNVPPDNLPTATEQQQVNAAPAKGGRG
In short: as §1

[12] = test system: N. gonorrhoeae WHO L; experiment: Liquid broth MIC in Fastidious broth; conditions: Neisseria gonorrhoeae, read-out: Minimum Inhibitory Concentration, WHO L
[13] = test system: N. gonorrhoeae WHO Z; experiment: Liquid broth MIC in Fastidious broth; conditions: Neisseria gonorrhoeae, read-out: Minimum Inhibitory Concentration, WHO Z
Protocol: Additional antibacterial testing of the series was performed in 8 reference strains of N. gonorrhoeae (ATCC 49226, FA1090, MS 11, WHO G, WHO L, WHO M, WHO K, WHO X, WHO Z, WHO Q, CDC-0197). ATCC 49226, FA1090, MS11, WHO G, WHO L, and WHO M produce wild type or wild-type like PBP2. WHO K, WHO X, WHO Z, WHO Q, and CDC-0197 produce mosaic PBP2. Liquid broth-based assays were used for antibacterial testing of PBP inhibitors in Neisseria gonorrhoeae. Briefly, cryo-preserved bacterial cultures of clinical strains were streaked for isolation on Chocolate Agar (72 g/L (2×) GC Agar Base (BD #228950) and 2% (2×) Hemoglobin was autoclaved at 121° C. for 20 minutes to sterilize. Once cooled to ˜50° C. the 2×GC Agar Base and 2× Hemoglobin solutions are combined and 1% IsoVitaleX Enrichment (BD #211876) was added to the solution). Strains were incubated at 36° C. and 5% CO2 to allow growth of colonies, 24 hours before inoculum preparation. 2-fold serial dilutions of test compounds were conducted in a 96 well plate with a final volume of 75 μL per well at 2-fold the final desired concentration in Fastidious broth (Remel #R07664). For preparation of assay inoculum, a direct suspension was prepared by aseptically swabbing 10-15 colonies from agar plates into culture tubes containing 2 mL of fresh sterile saline. After the dilution plates were set up, direct suspensions were then diluted in a cuvette containing sterile saline and the optical density was measured at 600 nm. Inocula were diluted such that 75 μL of this culture in Fastidious broth results in a starting bacterial concentration of 5×10^5 CFU/mL when added to the dilution plates. The plates were incubated for ˜24 hours at 36° C. and 5% CO2.

[14] = test system: N. gonorrhoeae MS11; experiment: Liquid broth MIC in Fastidious broth; conditions: Neisseria gonorrhoeae, MS11, read-out: Minimum Inhibitory Concentration, MS11
[15] = test system: B. humptydooensis ATCC BAA-2767; experiment: microbe, parasite or virus in culture; type: cell-based; conditions: Burkholderia humptydooensis, ATCCBAA2767, read-out: Minimum inhibitory concentration (MIC), B. humptydooensis ATCC BAA-2767

| SMILES | MIC [1] [µg/mL] | MIC [2] [µg/mL] | MIC [3] [µg/mL] | MIC [4] [µg/mL] | MIC [5] [µg/mL] | MIC [6] [µg/mL] | MIC [7] [µg/mL] | MIC [8] [µg/mL] | EC50 [9] [µM] | MIC [10] [µg/mL] | IC50 [11] [µM] | MIC [12] [µg/mL] | MIC [13] [µg/mL] | MIC [14] [µg/mL] | MIC [15] [µg/mL] |
| --- | --- | --- | --- | --- | --- | --- | --- | --- | --- | --- | --- | --- | --- | --- | --- |
| O=C(O)c1c(F)ccc2c1OB(O)[C@@H](NC(=O)C(NC(=O)N1CCN(S(=O)(=O)CCCNC(=O)[C@@H]3CCCN3)C1=O)c1cc(F)c(O)c(O)c1Cl)C2 (stereo partly drawn) [Example 275, (3R)-3-(2-(2-chloro-5-fluoro-3,4-dihydroxyphenyl)-2-(2-oxo-3-((3-((S)-pyrrolidine-2-carboxamido)propyl)sulfonyl)imidazolidine-1-carboxamido)acetamido)-7-fluoro-2-hydroxy-3,4-dihydro-2H-benzo[e][1,2]oxaborinine-8-carboxylic acid] | > 64 | < 1 | < 1 | 2 to 4 (≈ 2.59 to 5.18 µM) | 4 to 8 (≈ 5.18 to 10.4 µM) | 8 to 16 (≈ 10.4 to 20.7 µM) | 8 to 16 (≈ 10.4 to 20.7 µM) | 8 to 16 (≈ 10.4 to 20.7 µM) | 10 to 50 | 2 to 4 (≈ 2.59 to 5.18 µM) | < 10 | > 64 | 16 to 32 (≈ 20.7 to 41.4 µM) | 16 to 32 (≈ 20.7 to 41.4 µM) | < 1 |
| O=C(NCCCN1CCN(C(=O)N[C@@H](C(=O)N[C@H]2Cc3ccc(F)c(C(=O)O)c3OB2O)c2cc(F)c(O)c(O)c2Cl)C1=O)Nc1cccc(O)c1 [Example 258, (R)-3-((R)-2-(2-chloro-5-fluoro-3,4-dihydroxyphenyl)-2-(3-(3-(3-(3-hydroxyphenyl)ureido)propyl)-2-oxoimidazolidine-1-carboxamido)acetamido)-7-fluoro-2-hydroxy-3,4-dihydro-2H-benzo[e][1,2]oxaborinine-8-carboxylic acid] | > 64 | < 1 | < 1 | < 1 | 1 to 2 (≈ 1.34 to 2.68 µM) | < 1 | < 1 | < 1 | < 10 | 2 to 4 (≈ 2.68 to 5.36 µM) | < 10 | > 64 | 4 to 8 (≈ 5.36 to 10.7 µM) | 16 to 32 (≈ 21.4 to 42.8 µM) | < 1 |
